From publication PMC12692861, “Biotin-Linked Ursolic Acid Conjugates as Selective Anticancer Agents and Target-Identification Tools for Cancer Therapy” (Molecules, 2025)

Assays:
[1] = system: 5637 cells; assay: MTT antiproliferative assay; assay type: cell-based, human; conditions: for IC50: Homo sapiens, 72 h, MTT, read-out: IC50 (Mean ± SD), 5637; for SI (selectivity index), 5637: IC50 MCF-12A / IC50 5637
Experimental: (§1) The synthesized hybrid conjugates 5a–d were evaluated for their antiproliferative activity against the established human bladder cancer cell lines T24 and 5637. Test compounds were dissolved in ultrapure dimethyl sulfoxide (DMSO), diluted in cell culture media, added to cells cultured in 96-well cluster wells, and incubated for 72 h. The concentration of DMSO in culture media was maintained at < 0.05%. As previously reported, the fraction of viable cells in the culture wells was compared to that in cultures with 0.05% DMSO-only using a colorimetric assay, the Methyl Tetrazolium Bromide (MTT) reduction assay. We determined the selectivity index (SI) of the compounds 5a–d against tumor cells by comparing their cytotoxicity to that of a non-tumorigenic breast epithelial cell line, MCF-12A, as well as a non-tumorigenic, immortalized urothelial cell line, UROtsa (Table 1, and Figure 2).
(§2) The antiproliferative activities of various compounds examined in this report were measured using the MTT (3-[4,5-dimethylthiazol-2-yl]-2,5-diphenyl-tetrazolium bromide) reduction assay, as previously described. Briefly, cells were seeded at 2 × 10^3 cells per well in a 96-well plate and cultured overnight. The cells were then treated with different doses (5 µM, 10 µM, 15 µM, 20 µM, 25 µM, 30 µM, 35 µM, 40 µM in DMSO) for 72 h. Viability of the treated cultures was estimated by conversion of MTT to the insoluble formazan after 3h incubation at 37 °C and 5% CO2. The purple-colored formazan crystals were dissolved in DMSO, and absorbance was recorded at wavelengths 570/640 nm using the Bio-Rad Benchmark Plus Microplate Reader. The percent of viable cells was calculated ODtreated cells/ODcontrol cell wells × 100.

[2] = system: T24 cells; assay: MTT antiproliferative assay; assay type: cell-based, human; conditions: for IC50: Homo sapiens, T-24, MTT, 72 h, read-out: IC50 (Mean ± SD), T24; for SI (selectivity index), T24: IC50 MCF-12A / IC50 T24
Experimental: as §1, §2

[3] = system: HT-1376; assay: MTT antiproliferative assay; assay type: cell-based, human; conditions: for IC50: Homo sapiens, HT-1376, MTT, 72 h, read-out: IC50 ± SD, HT-1376; for SI (selectivity index), HT-1376: IC50 UROtsa / IC50 HT-1376
Experimental: (§3) The IC50 values indicate that 5c is effective across multiple bladder cancer cell lines (Figure 2 and Table 2).
as §2

[4] = system: MB49; assay: MTT antiproliferative assay; assay type: cell-based, murine; conditions: for SI (selectivity index), MB49: IC50 UROtsa / IC50 MB49; for IC50: Mus musculus, MB49, MTT, 72 h, read-out: IC50 ± SD, MB49
Experimental: as §3, §2

[5] = system: UROtsa; assay: MTT assay, non-tumorigenic immortalized urothelial cell line; assay type: cell-based, human; conditions: for IC50: Homo sapiens, MTT, 72 h, non-tumorigenic cells, read-out: IC50 ± SD, UROtsa
Experimental: as §1, §2

[6] = system: T24 cells; assay: ROS estimation with H2DCFDA; assay type: cell-based, human; conditions: T24, 24 h, all tested concentrations (5–40 µM)
Experimental: Since 5c was not toxic to non-tumorigenic cells, such as MCF12A and UROtsa, these cells were excluded from experiments aimed at identifying the broad mechanism of cytotoxicity. A common mechanism by which these antioxidants induce cytotoxicity in tumor cells is by generating Reactive Oxygen Species (ROS) selectively in fast-growing tumor cells. The levels of ROS generated by 5c exposed cells were evaluated with the oxidation of 2′,7′-dichlorodihydrofluorescein diacetate (H2DCFDA). It is a cell-permeant fluorescent probe used for detecting ROS production (Thermo Scientific Inc., Waltham, MA, USA). […] Figure 3 illustrates the quantification of intracellular ROS levels in four bladder cancer cell lines, 5637, T24, HT-1376, and MB49, following treatment with UA and its biotin-conjugated derivative, compound 5c.
The relative levels of intracellular ROS produced in untreated and drug-treated cells were analyzed by fluorimetry using the fluorescent probe H2DCFDA (Sigma-Aldrich, #D6883, St. Louis, MI, USA), as described previously. Briefly, cells cultured in a 96-well plate at 1 × 10^4 cells per well were treated with drugs of interest for 24 h rinsed with sterile PBS to remove excess drugs, and incubated with 10 μM DCFDA for 30 min at 37 °C and 5% CO2. Following three rinses with PBS, the fluorescence intensity was recorded at excitation: 485/20, emission: 528/20 using a BioTek Synergy HTX Multimode fluorescence plate reader (Agilent Technologies, Inc., Santa Clara, CA, USA), and the data were represented as percentage change compared to the respective untreated control.
Figure 3 Estimation of oxidative stress: Treatment with UA or 5c increased ROS levels in various bladder cancer cells. ROS levels were estimated at 24 h using DCFDA. The relative fluorescence unit (RFU) was normalized to that observed in untreated cells and expressed as a percent increase. Data are Means ± SD, (n = 4). Relative significance, expressed as p-value are calculated based on one-way ANOVA.

[7] = system: 5637; assay: Cell cycle phase fractionation by flow cytometry (PI); assay type: cell-based, human; conditions: 5637, 24 h, mean ± SD n=3
Excerpt: (§4) Cells treated with some antiproliferative drugs are blocked from orderly progression from one stage of their mitotic cycle to the next due to inhibition of a specific stage of the cell cycle. Analysis by flow cytometry (FC) of DNA content in the nuclei of drug-treated cells is a well-established technique for evaluating the fractions of cells in each stage of the cell cycle based on their DNA content. In this study, we employed FC to examine whether treatment with UA or 5c affects the orderly cell cycle progression from G0/G1, S, and G2M before entering Mitosis (M). Figure 6 represents the effect of UA and 5c on cell cycle progression in four bladder cancer cell lines, 5637, HT-1376, T-24, and MB-49, after a […] treatment at a concentration of 12 µM. Following the treatment, nuclei suspensions from treated cells were prepared by direct cell lysis in a hypotonic solution, with simultaneous staining with PI (100 µg/mL). The resulting nuclei suspension and the samples were run on the flow cytometer and analyzed for DNA content.
(§5) Cells cultured in 35 mm diameter, 6-well cluster plates (Corning Inc., Corning, NY, USA) overnight at a density of 0.3 × 10^6 cells/well, and treated with various compounds at selected concentrations for 24 h. After completion of treatment, cells were washed twice with PBS, followed by the addition of Propidium Iodide (PI) containing […] solution [(0.1 mg/mL PI), 50mg Na-citrate, 15 µL of IGEPAL CA-630], 1 mL in each well, and incubated for 30–45 min at 37 °C and 5% CO2. After that data acquired using the NovoCyte Quanteon Flow Cytometer was analyzed using NovoExpress software (version 1.6.1).

[8] = system: HT-1376; assay: as above; assay type: cell-based, human; conditions: HT-1376, 24 h, mean ± SD n=3
Excerpt: as §4, §5

[9] = system: T24; assay: as above; assay type: cell-based, human; conditions: T24, 24 h, mean ± SD n=3
Excerpt: as §4, §5

CC1CCC2(C(=O)OCCCCOC(=O)CCCCC3SCC4NC(=O)NC43)CCC3(C)C(=CCC4C5(C)CCC(O)C(C)(C)C5CCC43C)C2C1C [Compound 5c, 4-((5-((3aS,4S,6aR)-2-Oxohexahydro-1H-thieno [3,4-d]imidazol-4-yl)pentanoyl)oxy) butyl 3-hydroxy-urs-12-en-28-oate]
IC50 [1]: 11 ± 0.19 µM
SI (selectivity index), 5637 [1]: 7.58
IC50 [2]: 14.2 ± 1.01 µM
SI (selectivity index), T24 [2]: 5.85
IC50 in µM (selectivity index in parentheses), T-24 ([2]; IC50 UROtsa / IC50 T-24): 14.20 ± 1.01 (4.43)
IC50 [3]: 12.7 ± 0.4 µM
SI (selectivity index), HT-1376 [3]: 4.96
SI (selectivity index), MB49 [4]: 4.63
IC50 [4]: 13.6 ± 0.18 µM
IC50 [5]: 62.9 ± 3.84 µM
toxicity to non-tumorigenic cells ([5]; UROtsa): not toxic
ROS levels [6]: comparable increases in ROS levels
Cell-Cycle Phase-Fractions G1 [7]: 47.78 ± 0.60 % of total
Cell-Cycle Phase-Fractions G2/M [7]: 16.79 ± 0.73 % of total
Cell-Cycle Phase-Fractions S [7]: 35.42 ± 1.33 % of total
Cell-Cycle Phase-Fractions G1 [8]: 52.11 ± 0.06 % of total
Cell-Cycle Phase-Fractions G2/M [8]: 16.15 ± 0.71 % of total
Cell-Cycle Phase-Fractions S [8]: 31.73 ± 0.65 % of total
Cell-Cycle Phase-Fractions G1 [9]: 55.10 ± 0.37 % of total
Cell-Cycle Phase-Fractions G2/M [9]: 15.20 ± 0.02 % of total
Cell-Cycle Phase-Fractions S [9]: 29.70 ± 0.39 % of total

C[C@H]1[C@H](C)CC[C@]2(C(=O)O)CC[C@]3(C)C(=CC[C@@H]4[C@@]5(C)CC[C@H](O)C(C)(C)[C@@H]5CC[C@]43C)[C@H]12 [UA, Ursolic acid]
IC50 [1]: 13.4 ± 0.35 µM
SI (selectivity index), 5637 [1]: 4.19
IC50 [2]: 17.5 ± 0.98 µM
SI (selectivity index), T24 [2]: 3.21
IC50 [3]: 21.9 ± 1.14 µM
SI (selectivity index), HT-1376 [3]: 3.06
SI (selectivity index), MB49 [4]: 6.26
IC50 [4]: 10.7 ± 0.36 µM
IC50 [5]: 67 ± 7.15 µM
ROS levels [6]: comparable increases in ROS levels
Cell-Cycle Phase-Fractions G1 [7]: 43.52 ± 0.88 % of total
Cell-Cycle Phase-Fractions G2/M [7]: 18.59 ± 2.05 % of total
Cell-Cycle Phase-Fractions S [7]: 37.89 ± 1.16 % of total
Cell-Cycle Phase-Fractions G1 [8]: 52.40 ± 0.56 % of total
Cell-Cycle Phase-Fractions G2/M [8]: 17.17 ± 1.04 % of total
Cell-Cycle Phase-Fractions S [8]: 30.43 ± 0.48 % of total
Cell-Cycle Phase-Fractions G1 [9]: 57.76 ± 2.60 % of total
Cell-Cycle Phase-Fractions G2/M [9]: 19.95 ± 1.82 % of total
Cell-Cycle Phase-Fractions S [9]: 22.29 ± 0.77 % of total
